Experimental data reported in patent US10793568B2, “Hormone receptor modulators for treating metabolic conditions and disorders” (ARDELYX, INC., priority 2016, dated 2020).

Columns and labels:
[1] = target: human Farnesoid X receptor ligand-binding domain/Gal4 DNA binding domain chimera (Homo sapiens (Human), UniProt Q96RI1); test: Cell-based assay of FXR activation (FXR-UAS-bla HEK 293T beta-lactamase reporter); details: cellular FXR beta-lactamase reporter assay; for Emax: HEK-293T, extent of activation relative to GW4064, read-out: % Efficacy; for EC50: FXR-UAS-bla HEK 293T cells, 16 h, pEC50 = -log EC50
Sequence of human Farnesoid X receptor ligand-binding domain/Gal4 DNA binding domain chimera (Q96RI1 262-486, change not shown): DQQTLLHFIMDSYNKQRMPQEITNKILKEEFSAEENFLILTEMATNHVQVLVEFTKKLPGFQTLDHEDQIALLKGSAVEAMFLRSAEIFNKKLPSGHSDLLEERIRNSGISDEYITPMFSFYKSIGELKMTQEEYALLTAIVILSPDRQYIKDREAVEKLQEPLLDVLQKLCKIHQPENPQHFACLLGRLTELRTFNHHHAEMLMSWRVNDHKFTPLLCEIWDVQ
Sequence of human Farnesoid X receptor ligand-binding domain/Gal4 DNA binding domain chimera (P04386 1-147 partner): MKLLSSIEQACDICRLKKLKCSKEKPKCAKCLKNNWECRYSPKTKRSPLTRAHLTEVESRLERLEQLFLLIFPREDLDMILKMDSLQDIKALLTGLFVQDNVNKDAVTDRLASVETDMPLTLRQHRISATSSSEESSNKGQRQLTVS
How it was run: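 Readout is cleavage of the CCF4 FRET substrate (409 nm excitation, blue 447 nm signal) by beta-lactamase, expressed under UAS control after a Gal4–human FXR LBD chimera is activated in HEK 293T cells. Compounds were added as 3-fold dilutions for 16 h at 37 °C in 2% charcoal-stripped FBS medium. Curves were fit to a 3-parameter logistic equation to give pEC50, with % activation relative to GW4064.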

[2] = target: ligand binding domain of human FXR (Homo sapiens (Human), UniProt Q96RI1); test: FXR ligand binding assay (LanthaScreen TR-FRET, SRC2-2 peptide recruitment); details: for pEC50: -log EC50, concentration required to produce 50% activation; for Emax: extent of activation relative to GW4064, read-out: % Efficacy
Sequence of ligand binding domain of human FXR (Q96RI1 262-486): as the sequence (Q96RI1 262-486, change not shown) above

Row | SMILES | Emax [1] [%] | EC50 [1] [nM] | pEC50 [2] | Emax [2] [%]
1 | O=C(O)C1CCc2cc(N3C(=O)[C@@H]4C[C@H]3C[C@H]4OCc3c(-c4c(Cl)cccc4Cl)noc3C3CC3)ccc21 (stereo partly drawn) [Compound I-312, 5-[(1S,4R,5R)-5-{[5-cyclopropyl-3-(2,6-dichlorophenyl)-1,2-oxazol-4-yl]methoxy}-3-oxo-2-azabicyclo[2.2.1]heptan-2-yl]-2,3-dihydro-1H-indene-1-carboxylic Acid] | 134 | 20 | 7 | 149
2 | O=C(O)C1Cc2ccc(N3C(=O)[C@@H]4C[C@H]3C[C@H]4OCc3c(-c4c(Cl)cccc4Cl)noc3C3CC3)cc2C1 (stereo partly drawn) [Compound I-313, 5-[(1S,4R,5R)-5-{[5-cyclopropyl-3-(2,6-dichlorophenyl)-1,2-oxazol-4-yl]methoxy}-3-oxo-2-azabicyclo[2.2.1]heptan-2-yl]-2,3-dihydro-1H-indene-2-carboxylic Acid] | 112 | 25.1 | 7 | 140
3 | O=C(O)c1ccc(N2C(=O)[C@@H]3C[C@H]2C[C@H]3OCc2c(-c3c(Cl)cccc3Cl)noc2C2CC2)cc1F [Compound I-314, 4-[(1S,4R,5R)-5-{[5-cyclopropyl-3-(2,6-dichlorophenyl)-1,2-oxazol-4-yl]methoxy}-3-oxo-2-azabicyclo[2.2.1]heptan-2-yl]-2-fluorobenzoic Acid] | 103 | 2.51 | 8.4 | 145
4 | O=C(O)c1ccc(N2C(=O)[C@@H]3C[C@H]2C[C@H]3OCc2c(-c3c(Cl)cccc3Cl)noc2C2CC2)c(F)c1 [Compound I-315, 4-[(1S,4R,5R)-5-{[5-cyclopropyl-3-(2,6-dichlorophenyl)-1,2-oxazol-4-yl]methoxy}-3-oxo-2-azabicyclo[2.2.1]heptan-2-yl]-3-fluorobenzoic Acid] | 106 | 25.1 | 7.4 | 157
5 | Cc1cc(N2C(=O)[C@@H]3C[C@H]2C[C@H]3OCc2c(-c3c(Cl)cccc3Cl)noc2C2CC2)ccc1C(=O)O [Compound I-316, 4-[(1S,4R,5R)-5-{[5-cyclopropyl-3-(2,6-dichlorophenyl)-1,2-oxazol-4-yl]methoxy}-3-oxo-2-azabicyclo[2.2.1]heptan-2-yl]-2-methylbenzoic Acid] | 109 | 7.94 | 7.6 | 152
6 | Cc1cc(C(=O)O)ccc1N1C(=O)[C@@H]2C[C@H]1C[C@H]2OCc1c(-c2c(Cl)cccc2Cl)noc1C1CC1 [Compound I-317, 4-[(1S,4R,5R)-5-{[5-cyclopropyl-3-(2,6-dichlorophenyl)-1,2-oxazol-4-yl]methoxy}-3-oxo-2-azabicyclo[2.2.1]heptan-2-yl]-3-methylbenzoic Acid] | 126 | 100 | 6.7 | 131
7 | CCc1cc(N2C(=O)[C@@H]3C[C@H]2C[C@H]3OCc2c(-c3c(Cl)cccc3Cl)noc2C2CC2)ccc1C(=O)O [Compound I-318, 4-[(1S,4R,5R)-5-{[5-cyclopropyl-3-(2,6-dichlorophenyl)-1,2-oxazol-4-yl]methoxy}-3-oxo-2-azabicyclo[2.2.1]heptan-2-yl]-2-ethylbenzoic Acid] | 116 | 6.31 | 7.2 | 127
8 | O=C(O)c1ccc(N2C(=O)[C@@H]3C[C@H]2C[C@H]3OCc2c(-c3c(Cl)cccc3Cl)noc2C2CC2)cc1C1CC1 [Compound I-319, 2-cyclopropyl-4-[(1S,4R,5R)-5-{[5-cyclopropyl-3-(2,6-dichlorophenyl)-1,2-oxazol-4-yl]methoxy}-3-oxo-2-azabicyclo[2.2.1]heptan-2-yl]benzoic Acid] | 113 | 10 | 7.4 | 118
9 | O=C(O)c1ccc(C2CC2)cc1N1C(=O)[C@@H]2C[C@H]1C[C@H]2OCc1c(-c2c(Cl)cccc2Cl)noc1C1CC1 [Compound I-320, 4-cyclopropyl-2-[(1S,4R,5R)-5-{[5-cyclopropyl-3-(2,6-dichlorophenyl)-1,2-oxazol-4-yl]methoxy}-3-oxo-2-azabicyclo[2.2.1]heptan-2-yl]benzoic Acid] | 110 | 20 | 7.5 | 114
10 | CC1(C)CC(S(=O)(=O)NC(=O)c2ccc(N3C(=O)[C@@H]4C[C@H]3C[C@H]4OCc3c(-c4c(Cl)cccc4Cl)noc3C3CC3)cc2)CCO1 (stereo partly drawn) [Compound I-329, 4-[(1S,4R,5R)-5-{[5-cyclopropyl-3-(2,6-dichlorophenyl)-1,2-oxazol-4-yl]methoxy}-3-oxo-2-azabicyclo[2.2.1]heptan-2-yl]-N-[(2,2-dimethyloxan-4-yl)sulfonyl]benzamide] | 117 | 0.794 | 9 | 162
11 | CC1(C)CC(S(=O)(=O)NC(=O)c2ccc(N3C(=O)[C@@H]4C[C@H]3C[C@H]4OCc3c(-c4c(Cl)cccc4Cl)noc3C3CC3)cc2F)CCO1 (stereo partly drawn) [Compound I-330, 4-[(1S,4R,5R)-5-{[5-cyclopropyl-3-(2,6-dichlorophenyl)-1,2-oxazol-4-yl]methoxy}-3-oxo-2-azabicyclo[2.2.1]heptan-2-yl]-N-[(2,2-dimethyloxan-4-yl)sulfonyl]-2-fluorobenzamide] | 120 | 0.158 | 8.8 | 156
12 | O=C(NS(=O)(=O)C1CC1)c1ccc(N2C(=O)[C@@H]3C[C@H]2C[C@H]3OCc2c(-c3c(Cl)cccc3Cl)noc2C2CC2)cc1F [Compound I-331, 4-((1S,4R,5R)-5-((5-cyclopropyl-3-(2,6-chlorophenyl)isoxazol-4-yl)methoxy)-3-oxo-2-azabicyclo[2.2.1]heptan-2-yl)-N-(cyclopropylsulfonyl)-2-fluorobenzamiide] | 107 | 0.316 | 8.7 | 180
13 | O=C(NS(=O)(=O)C1CCOCC1)c1ccc(N2C(=O)[C@@H]3C[C@H]2C[C@H]3OCc2c(-c3c(Cl)cccc3Cl)noc2C2CC2)cc1F [Compound I-332, 4-((1S,4R,5R)-5-((5-cyclopropyl-3-(2,6-dichlorophenyl)isoxazol-4-yl)methoxy)-3-oxo-2-azabicyclo[2.2.1]heptan-2-yl)-2-fluoro-N-((tetrahydro-2H-pyran-4-yl)sulfonyl)benzamide] | 100 | 0.316 | 8.8 | 150
14 | O=C(NS(=O)(=O)CC1CCOCC1)c1ccc(N2C(=O)[C@@H]3C[C@H]2C[C@H]3OCc2c(-c3c(Cl)cccc3Cl)noc2C2CC2)cc1F [Compound I-333, 4-((1S,4R,5R)-5-((5-cyclopropyl-3-(2,6-dichlorophenyl)isoxazol-4-yl)methoxy)-3-oxo-2-azabicyclo[2.2.1]heptan-2-yl)-2-fluoro-N-(((tetrahydro-2H-pyran-4-yl)methyl)sulfonyl)benzamide] | 112 | 0.501 | 8.8 | 158
15 | O=C(NS(=O)(=O)C1CCOC1)c1ccc(N2C(=O)[C@@H]3C[C@H]2C[C@H]3OCc2c(-c3c(Cl)cccc3Cl)noc2C2CC2)cc1F (stereo partly drawn) [Compound I-334, 4-((1S,4R,5R)-5-((5-cyclopropyl-3-(2,6-dichlorophenyl)isoxazol-4-yl)methoxy)-3-oxo-2-azabicyclo[2.2.1]heptan-2-yl)-2-fluoro-N-((tetrahydrofuran-3-yl)sulfonyl)benzamide] | 104 | 1 | 9 | 180
16 | O=C(NS(=O)(=O)CC1CCOC1)c1ccc(N2C(=O)[C@@H]3C[C@H]2C[C@H]3OCc2c(-c3c(Cl)cccc3Cl)noc2C2CC2)cc1F (stereo partly drawn) [Compound I-335, 4-((1S,4R,5R)-5-((5-cyclopropyl-3-(2,6-dichlorophenyl)isoxazol-4-yl)methoxy)-3-oxo-2-azabicyclo[2.2.1]heptan-2-yl)-2-fluoro-N-(((tetrahydrofuran-3-yl)methyl)sulfonyl)benzamide] | 108 | 1 | 8.8 | 172
17 | O=C(NS(=O)(=O)CCC1CCOC1)c1ccc(N2C(=O)[C@@H]3C[C@H]2C[C@H]3OCc2c(-c3c(Cl)cccc3Cl)noc2C2CC2)cc1F (stereo partly drawn) [Compound I-336, 4-((1S,4R,5R)-5-((5-cyclopropyl-3-(2,6-dichlorophenyl)isoxazol-4-yl)methoxy)-3-oxo-2-azabicyclo[2.2.1]heptan-2-yl)-2-fluoro-N-((2-(tetrahydrofuran-3-yl)ethyl)sulfonyl)benzamide] | 125 | 2.51 | 8.6 | 182
18 | O=C(NS(=O)(=O)C1CC1)c1ccc(N2C(=O)[C@@H]3C[C@H]2C[C@H]3OCc2c(-c3c(Cl)cccc3Cl)noc2C2CC2)cc1 [Compound I-337, 4-((1S,4R,5R)-5-((5-cyclopropyl-3-(2,6-dichlorophenyl)isoxazol-4-yl)methoxy)-3-oxo-2-azabicyclo[2.2.1]heptan-2-yl)-N-(cyclopropylsulfonyl)benzamide] | 110 | 2 | 8.6 | 174
19 | O=C(NS(=O)(=O)C1CCOCC1)c1ccc(N2C(=O)[C@@H]3C[C@H]2C[C@H]3OCc2c(-c3c(Cl)cccc3Cl)noc2C2CC2)cc1 [Compound I-338] | 106 | 15.8 | 8.9 | 158
20 | O=C(NS(=O)(=O)CC1CCOCC1)c1ccc(N2C(=O)[C@@H]3C[C@H]2C[C@H]3OCc2c(-c3c(Cl)cccc3Cl)noc2C2CC2)cc1 [Compound I-339, 4-((1S,4R,5R)-5-((5-cyclopropyl-3-(2,6-dichlorophenyl)isoxazol-4-yl)methoxy)-3-oxo-2-azabicyclo[2.2.1]heptan-2-yl)-N-(((tetrahydro-2H-pyran-4-yl)methyl)sulfonyl)benzamide] | 118 | 5.01 | 8.6 | 198
